Measurements: US20230391760A1, “HETEROCYCLIC GLP-1 AGONISTS” (Gasherbrum Bio, Inc., priority 2020, published 2023)

Each molecule was assayed against GLP-1 Receptor (Homo sapiens, UniProt P43220) (assay: GLP-1R agonist cAMP stimulation assay (HEK293/GLP1R/CRE-LUC cells, cAMP dynamic 2 Kit)). Conditions: HEK293/CRE-Luc cell line stably expressing the GLP-1 Receptor, 30 min at 37° C.
Assay type: cell-based
Summary of the method: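 cAMP measured by HTRF competition (d2-labelled cAMP with cryptate antibody, 1 h, room temperature, protected from light). Before that, GLP1R/CRE-Luc HEK293 cells (1000/well) were exposed for 30 min at 37 °C to half-log compound dilutions in DPBS containing IBMX 0.5 mM and BSA 0.1%.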

Sequence of GLP-1 Receptor (P43220 24-463, species assumed): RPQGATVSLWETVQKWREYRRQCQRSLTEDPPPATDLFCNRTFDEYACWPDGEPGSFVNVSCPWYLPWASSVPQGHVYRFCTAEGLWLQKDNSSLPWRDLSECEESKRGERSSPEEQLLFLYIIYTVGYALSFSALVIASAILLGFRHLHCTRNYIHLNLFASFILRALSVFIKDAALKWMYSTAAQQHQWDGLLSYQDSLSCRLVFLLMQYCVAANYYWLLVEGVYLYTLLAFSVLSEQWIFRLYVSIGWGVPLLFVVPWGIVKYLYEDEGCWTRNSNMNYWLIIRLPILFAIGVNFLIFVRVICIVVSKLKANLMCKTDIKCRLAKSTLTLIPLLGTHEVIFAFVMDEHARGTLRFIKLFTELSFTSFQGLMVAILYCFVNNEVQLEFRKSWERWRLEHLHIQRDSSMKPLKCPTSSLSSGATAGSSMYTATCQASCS

In order of rising EC50:
1. C[C@]1(c2ccc(Cl)cc2F)Oc2cccc(C3CCN(Cc4nc5cc(-c6nnc(C7CC7)[nH]6)ncc5n4C[C@@H]4CCO4)CC3)c2O1 [Compound 281a, 4-[(2S)-2-(4-chloro-2-fluorophenyl)-2-methyl-2H-1,3-benzodioxol-4-yl]-1-{[6-(5-cyclopropyl-4H-1,2,4-triazol-3-yl)-3-{[(2S)-oxetan-2-yl]methyl}-3H-imidazo[4,5-c]pyridin-2-yl]methyl}piperidine]  0.023 nM
2. O=c1[nH]c(-c2cc3nc(CN4CCC(c5cccc(OCc6ccc(Cl)cc6F)n5)CC4)n(C[C@@H]4CCO4)c3cn2)no1 [Compound 316a, 3-{2-[(4-{6-[(4-chloro-2-fluorophenyl)methoxy]pyridin-2-yl}piperidin-1-yl)methyl]-3-{[(2S)-oxetan-2-yl]methyl}-3H-imidazo[4,5-c]pyridin-6-yl}-4,5-dihydro-1,2,4-oxadiazol-5-one]  0.037 nM
3. Cc1ncccc1C(=O)Nc1ccc2c(c1)nc(CN1CCC(c3cccc(OCc4ccc(Cl)cc4F)n3)CC1)n2C[C@@H]1CCO1 [Compound 188a, N-{2-[(4-{6-[(4-chloro-2-fluorophenyl)methoxy]pyridin-2-yl}piperidin-1-yl)methyl]-1-{[(2S)-oxetan-2-yl]methyl}-1H-1,3-benzodiazol-5-yl}-2-methylpyridine-3-carboxamide]  0.043 nM
4. Cc1nnc(-c2ccc3c(c2)nc(CN2CCC(c4cccc5c4OC(C)(c4ccc(Cl)cn4)O5)CC2)n3CC2(C#N)CC2)[nH]1 (centres unmarked) [Compound 414, 1-{[2-({4-[2-(5-chloropyridin-2-yl)-2-methyl-2H-1,3-benzodioxol-4-yl]piperidin-1-yl}methyl)-5-(5-methyl-4H-1,2,4-triazol-3-yl)-1H-1,3-benzodiazol-1-yl]methyl}cyclopropane-1-carbonitrile]  0.055 nM
5. Fc1cc(Cl)ccc1COc1cccc(C2CCN(Cc3nc4cc(-c5nnn[nH]5)ccc4n3C[C@@H]3CCO3)CC2)n1 [Compound 125a, 2-[(4-{6-[(4-chloro-2-fluorophenyl)methoxy]pyridin-2-yl}piperidin-1-yl)methyl]-1-{[(2S)-oxetan-2-yl]methyl}-5-(1H-1,2,3,4-tetrazol-5-yl)-1H-1,3-benzodiazole]  0.056 nM
6. O=C(Nc1ccc2c(c1)nc(CN1CCC(c3cccc(OCc4ccc(Cl)cc4F)n3)CC1)n2C[C@@H]1CCO1)C1CCCOC1 (single isomer, unassigned) [Compound 154b]  0.074 nM
7. CC1(c2ccc(Cl)cn2)Oc2cccc(C3CCN(Cc4nc5cc(-c6nnc(C7CC7)[nH]6)ncc5n4C[C@@H]4CCO4)CC3)c2O1 (stereo partly drawn) [Compound 266a, 5-chloro-2-[4-(1-{[6-(5-cyclopropyl-4H-1,2,4-triazol-3-yl)-3-{[(2S)-oxetan-2-yl]methyl}-3H-imidazo[4,5-c]pyridin-2-yl]methyl}piperidin-4-yl)-2-methyl-2H-1,3-benzodioxol-2-yl]pyridine]  0.094 nM
8. N#Cc1ccc(COc2cc(C3=CCN(Cc4nc5cc(-c6nnc(C(F)(F)F)[nH]6)ncc5n4C[C@@H]4CCO4)CC3)ccc2F)c(F)c1 [Compound 300a, 3-fluoro-4-[(2-fluoro-5-{1-[(3-{[(2S)-oxetan-2-yl]methyl}-6-[5-(trifluoromethyl)-4H-1,2,4-triazol-3-yl]-3H-imidazo[4,5-c]pyridin-2-yl)methyl]-1,2,3,6-tetrahydropyridin-4-yl}phenoxy)methyl]benzonitrile]  0.1 nM
9. CC1(c2ccc(C#N)cn2)Oc2cccc(C3CCN(Cc4nc5cc(-c6nnc(C(F)(F)F)[nH]6)ccc5n4C[C@@H]4CCO4)CC3)c2O1 (stereo partly drawn) [Compound 354a, 6-(2-methyl-4-{1-[(1-{[(2S)-oxetan-2-yl]methyl}-5-[5-(trifluoromethyl)-4H-1,2,4-triazol-3-yl]-1H-1,3-benzodiazol-2-yl)methyl]piperidin-4-yl}-2H-1,3-benzodioxol-2-yl)pyridine-3-carbonitrile]  0.11 nM
10. O=c1[nH]c(-c2cnc3c(c2)nc(CN2CC=C(c4cccc(OCc5ccc(Cl)cc5F)n4)CC2)n3C[C@@H]2CCO2)no1 [Compound 324a, 3-[2-({6-[(4-chloro-2-fluorophenyl)methoxy]-1′,2′,3′,6′-tetrahydro-[2,4′-bipyridin]-1′-yl}methyl)-3-{[(2S)-oxetan-2-yl]methyl}-3H-imidazo[4,5-b]pyridin-6-yl]-4,5-dihydro-1,2,4-oxadiazol-5-one]  0.11 nM
11. CC1(c2ccc(Cl)cc2)Oc2cccc(C3CCN(Cc4nc5cc(-c6nnc(C(F)(F)F)[nH]6)ccc5n4C[C@@H]4CCO4)CC3)c2O1 (stereo partly drawn) [Compound 226a, 2-({4-[2-(4-chlorophenyl)-2-methyl-2H-1,3-benzodioxol-4-yl]piperidin-1-yl}methyl)-1-{[(2S)-oxetan-2-yl]methyl}-5-[5-(trifluoromethyl)-4H-1,2,4-triazol-3-yl]-1H-1,3-benzodiazole]  0.13 nM
12. CC1(c2ccc(Cl)cc2F)Oc2cccc(C3CCN(Cc4nc5cc(-c6nnc(S(C)(=O)=O)[nH]6)ccc5n4C[C@@H]4CCO4)CC3)c2O1 (stereo partly drawn) [Compound 253a, 2-({4-[2-(4-chloro-2-fluorophenyl)-2-methyl-2H-1,3-benzodioxol-4-yl]piperidin-1-yl}methyl)-5-(5-methanesulfonyl-4H-1,2,4-triazol-3-yl)-1-{[(2S)-oxetan-2-yl]methyl}-1H-1,3-benzodiazole]  0.65 nM
13. Fc1cc(Cl)ccc1COc1cccc(C2CCN(Cc3nc4cc(-c5nnc[nH]5)ncc4n3C[C@@H]3CCO3)CC2)n1 [Compound 436a, 2-[(4-chloro-2-fluorophenyl)methoxy]-6-{1-[(3-{[(2S)-oxetan-2-yl]methyl}-6-(4H-1,2,4-triazol-3-yl)-3H-imidazo[4,5-c]pyridin-2-yl)methyl]piperidin-4-yl}pyridine]  0.91 nM
14. CC(=O)Nc1ccc2c(c1)nc(CN1CCC(c3cccc4c3OC(C)(c3ccc(Cl)cc3F)O4)CC1)n2C[C@@H]1CCO1 (stereo partly drawn) [Compound 115a, N-(2-((4-(2-(4-chloro-2-fluorophenyl)-2-methylbenzo[d][1,3]dioxol-4-yl)piperidin-1-yl)methyl)-1-((S)-oxetan-2-ylmethyl)-1H-benzo[d]imidazol-5-yl)acetamide]  1.17 nM
15. CO[C@H](C)Cn1c(CN2CCC(c3cccc4c3O[C@@](C)(c3ccc(Cl)cc3F)O4)CC2)nc2cc(-c3noc(=O)[nH]3)cnc21 [Compound 397a, 3-[2-({4-[(2S)-2-(4-chloro-2-fluorophenyl)-2-methyl-2H-1,3-benzodioxol-4-yl]piperidin-1-yl}methyl)-3-[(2R)-2-methoxypropyl]-3H-imidazo[4,5-b]pyridin-6-yl]-4,5-dihydro-1,2,4-oxadiazol-5-one]  1.3 nM
16. O=C(O)c1c[nH]nc1-c1ccc2c(c1)nc(CN1CCC(c3cccc(OCc4ccc(Cl)cc4F)n3)CC1)n2C[C@@H]1CCO1 [Compound 214a, 3-{2-[(4-{6-[(4-chloro-2-fluorophenyl)methoxy]pyridin-2-yl}piperidin-1-yl)methyl]-1-{[(2S)-oxetan-2-yl]methyl}-1H-1,3-benzodiazol-5-yl}-1H-pyrazole-4-carboxylic acid]  4.2 nM
17. Nc1cccc(-c2ccc3c(c2)nc(CN2CCC(c4cccc(OCc5ccc(Cl)cc5F)n4)CC2)n3C[C@@H]2CCO2)n1 [Compound 212a, 6-{2-[(4-{6-[(4-chloro-2-fluorophenyl)methoxy]pyridin-2-yl}piperidin-1-yl)methyl]-1-{[(2S)-oxetan-2-yl]methyl}-1H-1,3-benzodiazol-5-yl}pyridin-2-amine]  7.5 nM
